# Data reported in article PMC8744835, “Sterically Hindered Quaternary Phosphonium Salts (QPSs): Antimicrobial Activity and Hemolytic and Cytotoxic Properties” (International Journal of Molecular Sciences, 2021).
# Columns and labels:
# [1] = test system: Bacillus cereus ATCC 10702 NCTC 8035; experiment: Antimicrobial activity, serial dilution technique in Mueller–Hinton Broth 2; format: cell-based; conditions: average of three ± SD, - means non-active
# Method: (§1) The synthesized compounds were tested for antimicrobial activity against a number of Gram-positive bacteria, Staphylococcus aureus (Sa), Bacillus cereus (Bc) and Enterococcus faecalis (Ef), and Gram-negative bacteria, Escherichia coli (Ec) and Pseudomonas aeruginosa (Pa), including the methicillin-resistant strains S. aureus MRSA-1 (resistant to fluoroquinolones and beta-lactams) and MRSA-2 (resistant to beta-lactams). The methicillin-resistant strains S. aureus were transferred by the Republican Clinical Hospital of the Republic of Tatarstan (Kazan). The fungicidal activity against Candida albicans (Ca) and Trichophyton mentagrophytes var. gypseum (Tm) was studied. These pathogens were chosen because they are the most widespread in the food industry and the healthcare system.
# (§2) The antimicrobial activity of the QPSs was determined using the serial dilution technique in Mueller–Hinton Broth 2. The cultures used for testing included the Gram-positive bacteria Staphylococcus aureus ATCC 6538P FDA 209P, Enterococcus faecalis ATCC 2921 and Bacillus cereus ATCC 10702 NCTC 8035, the Gram-negative bacteria Escherichia coli ATCC 25922 and Pseudomonas aeruginosa ATCC 9027, and the fungi Trichophyton mentagrophytes var. gypseum 1773 and Candida albicans ATCC 10231; methicillin-resistant strains of S. aureus MRSA were obtained from hospital patients with chronic tonsillitis (MRSA-1) and sinusitis (MRSA-2) in the Republican Clinical Hospital (Kazan, Russia). […] The bacterial load was 3.0 × 10^5 cfu/mL. The results were recorded every 24 h for 5 days. The cultures were incubated at 37 °C. The experiment was repeated three times. […] The minimum inhibitory concentration (MIC) was defined as the minimum concentration of a compound that inhibits the growth of the corresponding test micro-organism. The growth of bacteria as well as the absence of growth due to the bacteriostatic action of a compound was recorded.
# [2] = test system: Enterococcus faecalis ATCC 2921; experiment: as above; format: cell-based; conditions: average of three ± SD, - means non-active
# Method: as §1, §2
# [3] = test system: Escherichia coli ATCC 25922; experiment: as above; format: cell-based; conditions: Ec; average of three ± SD; - means non-active
# Method: as §1, §2
# [4] = test system: Pseudomonas aeruginosa ATCC 9027; experiment: as above; format: cell-based; conditions: average of three ± SD, - means non-active
# Method: as §1, §2
# [5] = test system: Staphylococcus aureus ATCC 6538P FDA 209P; experiment: as above; format: cell-based; conditions: average of three ± SD, - means non-active
# Method: as §1, §2
# [6] = test system: methicillin-resistant S. aureus MRSA-1; experiment: as above; format: cell-based, Staphylococcus aureus; conditions: - means non-active
# Method: as §1, §2
# [7] = test system: methicillin-resistant S. aureus MRSA-2; experiment: as above; format: cell-based, Staphylococcus aureus; conditions: - means non-active
# Method: as §1, §2
# [8] = test system: Candida albicans ATCC 10231; experiment: Fungicidal activity, serial dilution technique; format: cell-based; conditions: average of three ± SD, - means non-active
# Method: as §1
# (§3) The antimicrobial activity of the QPSs was determined using the serial dilution technique in Mueller–Hinton Broth 2. The cultures used for testing included the Gram-positive bacteria Staphylococcus aureus ATCC 6538P FDA 209P, Enterococcus faecalis ATCC 2921 and Bacillus cereus ATCC 10702 NCTC 8035, the Gram-negative bacteria Escherichia coli ATCC 25922 and Pseudomonas aeruginosa ATCC 9027, and the fungi Trichophyton mentagrophytes var. gypseum 1773 and Candida albicans ATCC 10231; methicillin-resistant strains of S. aureus MRSA were obtained from hospital patients with chronic tonsillitis (MRSA-1) and sinusitis (MRSA-2) in the Republican Clinical Hospital (Kazan, Russia). Ciprofloxacin and ketoconazole were purchased from Sigma-Aldrich. The bacterial load was 3.0 × 10^5 cfu/mL. The results were recorded every 24 h for 5 days. The cultures were incubated at 37 °C. The experiment was repeated three times. […] The minimum inhibitory concentration (MIC) was defined as the minimum concentration of a compound that inhibits the growth of the corresponding test micro-organism. The growth of bacteria as well as the absence of growth due to the bacteriostatic action of a compound was recorded.
# [9] = test system: Trichophyton mentagrophytes var. gypseum 1773; experiment: Fungicidal activity, serial dilution technique; format: cell-based; conditions: Tm, average of three ± SD, - means non-active; for MBC / MIC: Trichophyton mentagrophytes; for MBC: read-out: Minimum Bactericidal and Fungicidal Concentration (MBC, MFC), Tm; for MIC: read-out: Minimum Inhibitory Concentration (MIC), Tm
# Method: as §1, §3
# [10] = test system: Escherichia coli ATCC 25922; experiment: Antimicrobial activity, serial dilution technique in Mueller–Hinton Broth 2; format: cell-based; conditions: average of three ± SD, - means non-active
# [11] = MRSA-1 (resistant to fluoroquinolones and beta-lactams)
# [12] = MRSA-2 (resistant to beta-lactams)
Compound,"Minimum Bactericidal and Fungicidal Concentration (MBC, MFC), Bc [1] [µg/mL]","Minimum Inhibitory Concentration (MIC), Bc [1] [µg/mL]","Minimum Bactericidal and Fungicidal Concentration (MBC, MFC), Ef [2] [µg/mL]","Minimum Inhibitory Concentration (MIC), Ef [2] [µg/mL]","Minimum Inhibitory Concentration (MIC), Ec [3] [µg/mL]","Minimum Bactericidal and Fungicidal Concentration (MBC, MFC), Pa [4] [µg/mL]","Minimum Inhibitory Concentration (MIC), Pa [4] [µg/mL]","Minimum Bactericidal and Fungicidal Concentration (MBC, MFC), Sa [5] [µg/mL]","Minimum Inhibitory Concentration (MIC), Sa [5] [µg/mL]","Minimum Inhibitory Concentration (MIC), MRSA-1 [6, 11] [µg/mL]","Minimum Bactericidal and Fungicidal Concentration (MBC, MFC), MRSA-1 ([6]; MRSA-1) [µg/mL]","Minimum Inhibitory Concentration (MIC), MRSA-2 [7, 12] [µg/mL]","Minimum Bactericidal and Fungicidal Concentration (MBC, MFC), MRSA-2 ([7]; MRSA-2) [µg/mL]","Minimum Bactericidal and Fungicidal Concentration (MBC, MFC), Ca [8] [µg/mL]","Minimum Inhibitory Concentration (MIC), Ca [8] [µg/mL]","Minimum Bactericidal and Fungicidal Concentration (MBC, MFC), Tm [9] [µg/mL]","Minimum Inhibitory Concentration (MIC), Tm [9] [µg/mL]","Minimum Bactericidal and Fungicidal Concentration (MBC, MFC), Ec [10] [µg/mL]",MBC [9] [µg/mL],MIC [9] [µg/mL],further results
CCCCCCCCCCCCCC[P+](C(C)(C)C)(C(C)(C)C)C(C)(C)C [Compound 14b],15.6 ± 1.2,0.9 ± 0.07,1.9 ± 0.1,0.9 ± 0.08,1.9 ± 0.1,62.5 ± 5.4,7.8 ± 0.6,1.9 ± 0.1,0.1 ± 0.008,0.3 ± 0.01,0.5 ± 0.03,0.3 ± 0.02,0.5 ± 0.03,15.6 ± 1.2,3.9 ± 0.3,15.6 ± 1.3,15.6 ± 1.3,3.9 ± 0.2,–,–,–
CCCCCCCCCCCCCCC[P+](C(C)(C)C)(C(C)(C)C)C(C)(C)C [Compound 15a],–,–,1.9 ± 0.1,–,1.9 ± 0.1,–,–,–,–,–,–,–,–,3.9 ± 0.2,–,–,–,–,62.5 ± 5.7,62.5 ± 5.3,"MBC ([1]; Bacillus cereus, Bc, read-out: Minimum Bactericidal and Fungicidal Concentration (MBC, MFC), Bc): 15.6 ± 1.3 µg/mL; MIC ([1]; Bacillus cereus, Bc, read-out: Minimum Inhibitory Concentration (MIC), Bc): 0.5 ± 0.03 µg/mL; MIC ([2]; Enterococcus faecalis, ATCC2921, Ef, read-out: Minimum Inhibitory Concentration (MIC), Ef): 0.5 ± 0.03 µg/mL; MBC ([4]; Pseudomonas aeruginosa, ATCC9027, Pa, read-out: Minimum Bactericidal and Fungicidal Concentration (MBC, MFC), Pa): 7.8 ± 0.6 µg/mL; MIC ([4]; Pseudomonas aeruginosa, ATCC9027, Pa, read-out: Minimum Inhibitory Concentration (MIC), Pa): 7.8 ± 0.7 µg/mL; MBC ([5]; Staphylococcus aureus, Sa, read-out: Minimum Bactericidal and Fungicidal Concentration (MBC, MFC), Sa): 0.5 ± 0.03 µg/mL; MIC ([5]; Staphylococcus aureus, Sa, read-out: Minimum Inhibitory Concentration (MIC), Sa): 0.2 ± 0.01 µg/mL; MIC ([6]; Staphylococcus aureus, MRSA, MRSA-1 (resistant to fluoroquinolones and beta-lactams), read-out: Minimum Inhibitory Concentration (MIC), MRSA-1): 0.5 ± 0.02 µg/mL; MBC ([6]; Staphylococcus aureus, MRSA, MRSA-1, read-out: Minimum Bactericidal and Fungicidal Concentration (MBC, MFC), MRSA-1): 0.5 ± 0.04 µg/mL; MIC ([7]; Staphylococcus aureus, MRSA, MRSA-2 (resistant to beta-lactams), read-out: Minimum Inhibitory Concentration (MIC), MRSA-2): 0.5 ± 0.04 µg/mL; MBC ([7]; Staphylococcus aureus, MRSA, MRSA-2, read-out: Minimum Bactericidal and Fungicidal Concentration (MBC, MFC), MRSA-2): 0.5 ± 0.03 µg/mL; MIC ([8]; Candida albicans, ATCC10231, Ca, read-out: Minimum Inhibitory Concentration (MIC), Ca): 1.9 ± 0.1 µg/mL; MBC ([10]; Escherichia coli, ATCC25922, Ec, read-out: Minimum Bactericidal and Fungicidal Concentration (MBC, MFC), Ec): 3.9 ± 0.2 µg/mL"
CCCCCCCCCCCCCCC[P+](C(C)(C)C)(C(C)(C)C)C(C)(C)C [Compound 15b],15.6 ± 1.3,0.5 ± 0.03,3.9 ± 0.2,0.5 ± 0.04,3.9 ± 0.2,3.9 ± 0.3,3.9 ± 0.2,0.5 ± 0.03,0.2 ± 0.01,0.3 ± 0.01,0.3 ± 0.01,0.5 ± 0.03,0.5 ± 0.04,15.6 ± 1.2,1.9 ± 0.1,62.5 ± 5.2,62.5 ± 5.5,3.9 ± 0.2,–,–,–
CCCCCCCCCCCCCCCC[P+](C(C)(C)C)(C(C)(C)C)C(C)(C)C [Compound 16b],31.3 ± 2.4,1.9 ± 0.1,0.5 ± 0.03,0.5 ± 0.04,1.9 ± 0.1,62.5 ± 5.3,3.9 ± 0.02,0.5 ± 0.03,0.5 ± 0.03,1.9 ± 0.1,15.6 ± 1.2,0.5 ± 0.03,3.9 ± 0.2,3.9 ± 0.2,3.9 ± 0.2,–,–,1.9 ± 0.1,62.5 ± 5.5,62.5 ± 5.6,–
